In series [1] the test system is plasma protein extravasation response within the dura mater. In words: Inhibition of plasma protein extravasation within the dura mater following unilateral electrical trigeminal ganglion stimulation. The class given is in vivo, guinea pig. To be noted: for minimal effective dose: Cavia porcellus, iv, i.v. in guinea pigs, read-out: M.E.D. (minimally effective dose) for inhibition of plasma protein extravasation. How it is done:
The active compounds of the present invention are also evaluated via the inhibition of plasma protein extravasation response within the dura mater of guinea pigs following unilateral electrical trigeminal ganglion stimulation. The extent to which they mimic sumatriptan, in terms of both potency and efficacy, is determined in this assay. The procedure is performed on male Hartley guinea pigs (200-250 g, Charles River Laboratories, Wilmington, Mass., U.S.A.) as described in Markowitz et al., J. Neurosci., 7 (12), 4129-4136 (1987) and also in Lee, et al., Brain Reseach, 626, 303-305 (1993). The procedure briefly consists of placing pentobarbitone-anesthetized animals in a stereotaxic frame. ^125 I-BSA (bovine serum albumin) (50 μCi/kg^-1) is first injected into the femoral vein, followed 5 minutes later by drug or vehicle. Bipolar electrodes are then lowered into the trigeminal ganglia, and the right ganglion is stimulated for 5 minutes (1.2 mA, 5 Hz, 5 msec). The animal is then perfused with saline through the left cardiac ventricle and sacrificed, and the dura mater is dissected, weighed, and counted for radioactivity. Cpm/mg wet weight values are determined for the right vs left dura mater, and a ratio for the stimulated vs unstimulated sides is generated for each animal. Unpaired student's t-test is used to statistically compare these ratio values in respective groups treated with vehicle or drug.

Series [2] has as its system dog isolated saphenous vein strip. To be noted: antagonist of the vein strip contraction; cited from earlier work.
Series [3] is described as follows: Solid-state and solubility properties of the α-form of the hydrobromide salt. To be noted: crystalline α-form of the hydrobromide salt. The class given is physicochemical.
Series [4] deals with carotid vascular resistance. To be noted: anaesthetized dog; cited from earlier work.

In the case of `CN1C[C@H](CNC(=O)OCc2ccccc2)C[C@@H]2c3cccc4c3c(cn4C)C[C@H]21` [metergoline, reference compound], the “block of the effect of the drugs by a known serotonin antagonist” value in series [1] (antagonist of the inhibition of plasma protein extravasation) is reported as “partially blocked”. Regarding `CSc1ccc2c(c1)C(N1CCN(C)CC1)Cc1ccccc1S2` (centres unmarked) [methiothepin], the “block of the contractile effect by a known serotonin antagonist” value in series [2] is “blocked”. Consider `CNS(=O)(=O)Cc1ccc2[nH]cc(C[C@H]3CCCN3)c2c1` [Example 6A, (R)-5-(Methylaminosulfonylmethyl)-3-(pyrrolidin-2-ylmethyl)-1H-indole], for which the minimal effective dose in series [1] was 1e-07 µmol/kg.

Take `Br.CN1CCC[C@@H]1Cc1c[nH]c2ccc(CCS(=O)(=O)c3ccccc3)cc12` [α-form, (R)-5-(2-phenylsulphonylethyl)-3-(N-methylpyrrolidin-2-ylmethyl)-1H-indole hydrobromide]: in series [3], the hygroscopicity result is “non-hygroscopic”; the solid-state stability result is reported as “possesses solid-state stability”; the “solubility and dissolution behavior” value is “acceptable solubility and dissolution behavior”. As to `CNS(=O)(=O)Cc1ccc2[nH]cc(C[C@H]3CCCN3C)c2c1` [Example 5A, (R)-5-(Methylaminosulfonylmethyl)-3-(N-methylpyrrolidin-2-ylmethyl)-1H-indole], the minimal effective dose in series [1] is 1e-06 µmol/kg. On to `CNS(=O)(=O)Cc1ccc2[nH]cc(CCN(C)C)c2c1` [Sumatriptan], for which the “increase in carotid vascular resistance” value in series [4] is listed as “selective increase in carotid vascular resistance”.
